The record followed here is patent US20190358264A1, “METHODS OF TREATING DISEASES ASSOCIATED WITH ILC2 CELLS” (Limm Therapeutics, SA, priority 2016, published 2019).

Holding throughout (type): cell-based, mouse
One experiment concerns intestinal ILC2s. Nature of the experiment: Ki67 expression in intestinal ILC2s after in vitro stimulation with NmU23. Particulars: NmU23 100 ng/mL overnight. The method, then: (§1) FIGS. 10a-10d: FIG. 10a, Ki67 expression in intestinal ILC2s after an overnight in vitro stimulation with NmU23 alone (100 ng/mL, Phoenix Pharmaceutical) or NmU23 together with the survival cytokines Interleukin (IL)-2 and/or IL-7 (10 ng/mL). FIG. 10b, Ki67 expression in intestine ILC2 after in vivo administration of NmU23 (4 g/day during 2 days). n=5. FIG. 10c, ILC2-derived type 2 cytokines (IL-5, IL-13 and Amphiregulin (Areg)) in sorted intestine ILC2 after an overnight stimulation with NmU23, mouse recombinant IL-25 or IL-33 (R&D) (10, 50 and 100 ng/mL). Negative control: unstimulated ILC2, Positive control: ILC2 activated with phorbol 12-myristate 13-acetate (PMA, 50 ng/ml) plus ionomycin (500 ng/ml). n=3. FIG. 10d, Dot plots representative of the cytokine production with increasing dose of NmU23, rIL-25 and rIL-33. *P<0.05; **P<0.01; ***P<0.001; ****P<0.0001; ns not significant.
For in vitro experiments, purified lung and small intestine lamina propria ILC2s were FBS starved for 2 hours prior to stimulation and cultured in complete RPMI (supplemented with 10% foetal bovine serum (FBS), 1% hepes, sodium pyruvate, glutamine, streptomycin and penicillin) at 37° C. […] For in vivo experiments, B6 mice were injected intraperitoneal with NmU23 peptide (2 g/day) during Nippostrongylus brasiliensis infection or with a single dose of NmU23 (20 μg) and analyzed after 8 hours. […]

In the next experiment the test system is ILC2s. Nature of the experiment: In vitro activation of purified ILC2s, type 2 cytokine protein by intracellular staining. To be noted: purified ILC2s, Nmur1 competent vs deficient; NMUR1-dependent. As for the experimental part:
as §1
For in vitro experiments, purified lung and small intestine lamina propria ILC2s were FBS starved for 2 hours prior to stimulation and cultured in complete RPMI (supplemented with 10% foetal bovine serum (FBS), 1% hepes, sodium pyruvate, glutamine, streptomycin and penicillin) at 37° C. For mRNA analysis, ILC2s were stimulated overnight with recombinant mouse Neuromedin U 23 peptide (NmU23, 100 ng/mL; Phoenix pharmaceuticals). Both NmU23-stimulated and control ILC2s were cultured in the presence of IL-2 and IL-7 (10 ng/mL; Peprotech). ILC2s were lysed using RLT buffer (Qiagen). For cytokine protein analysis, ILC2s were incubated exclusively with brefeldin A (eBioscience) for 12 hours prior to intracellular staining. For in vivo experiments, B6 mice were injected intraperitoneal with NmU23 peptide (2 g/day) during Nippostrongylus brasiliensis infection or with a single dose of NmU23 (20 μg) and analyzed after 8 hours. Control mice were treated with PBS alone.
Intracellular staining was performed using IC fixation/permeabilization kit (eBioscience). Flow cytometry analysis and cell sorting were performed using BD LSRFORTESSA and BD FACSAria flow cytometers (BD Biosciences). […]

In the next experiment the test system is Ca^2+ influx in ILC2s. Kind of experiment: Calcium signaling (Fluo-4) in purified ILC2s. Particulars: NmU23 added 60 seconds after baseline; small intestine ILC2s. As for the experimental part:
Purified ILC2s from the small intestine were cultured with IL-2 and IL-7 (10 ng/mL) and FBS deprived for 6 hours prior to calcium signaling experiments. ILC2s were stained with Fluo-4 Direct Calcium Assay Kit (Thermo Fisher Scientific) according to manufacturer's protocol. Calcium (Ca^2+) influx, represented by the Fluo-4 AM, was recorded over time on a BD Accuri C6 (BD Biosciences) flow cytometer as previously reported^36. The recombinant mouse NmU23 was added 60 seconds after ILC2 baseline recording. Data was represented by the mean values of Ca^2+ influx kinetics between the ILC2 baseline response and the peak of response after recombinant mouse NmU23 addition.

On to “recombinant mouse Neuromedin U 23 peptide (FKAEYQSPSVGQSKGYFLFRPRN; listed as Mus musculus) [NmU23, NMUR1 agonist neuropeptide, Phoenix pharmaceuticals]”, for which the “ILC2 proliferation as measured by Ki67, in vitro” value in the experiment on intestinal ILC2s is recorded as “increased ILC2 proliferation”. The “expression of the type 2 cytokine proteins IL-5 and IL-13 in ILC2s” value in the experiment on ILC2s is recorded as “potent expression”. In addition, in the experiment with Ca^2+ influx in ILC2s, the “Ca^2+ influx in ILC2s (Fluo-4 AM intensity)” value was “immediate and robust Ca^2+ influx”.
